Columns and labels:
Test in all cases: relative viability (nuclei count vs DMSO), 5 days (fraction); higher = more cells survive
A-427 = system: A-427
Summary of the method: (§1)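 For relative viability, nuclei counts in treated wells were divided by those in vehicle wells. Lung cancer cell lines had been pin-tool dosed in 1536-well plates the day after seeding and cultured for 5 days, then fixed and stained in one step (final 0.05% Triton X-100, 1% formaldehyde, 1 ug/ml Hoechst) and imaged at 4×. Doses were one drug alone or a fixed anchor-drug dose plus five library-drug doses (not always all listed) in √10 steps, and values are duplicate-plate medians.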

NCI-H1975 = system: NCI-H1975
Summary of the method: as §1

NCI-H1563 = system: NCI-H1563
Summary of the method: as §1

NCI-H1755 = system: NCI-H1755
Summary of the method: as §1

HCC-366 = system: HCC-366
Summary of the method: as §1

NCI-H520 = system: NCI-H520
Summary of the method: as §1

ChaGo-K-1 = system: ChaGo-K-1
Summary of the method: as §1

NCI-H1734 = system: NCI-H1734
Summary of the method: as §1

NCI-H2170 = system: NCI-H2170
Summary of the method: as §1

NCI-H23 = system: NCI-H23
Summary of the method: as §1

NCI-H1666 = system: NCI-H1666
Summary of the method: as §1

EKVX = system: EKVX
Summary of the method: as §1

EMC-BAC-2 = system: EMC-BAC-2
Summary of the method: as §1

PC-3 [JPC-3] = system: PC-3 [JPC-3]
Summary of the method: as §1

SK-MES-1 = system: SK-MES-1
Summary of the method: as §1

LK-2 = system: LK-2
Summary of the method: as §1

NCI-H441 = system: NCI-H441
Summary of the method: as §1

SW 900 = system: SW 900
Summary of the method: as §1

LOU-NH91 = system: LOU-NH91
Summary of the method: as §1

COR-L 105 = system: COR-L 105
Summary of the method: as §1

NCI-H596 = system: NCI-H596
Summary of the method: as §1

H3255 = system: H3255
Summary of the method: as §1

## CC1(C)CCC(c2ccc(Cl)cc2)=C(CN2CCN(c3ccc(C(=O)NS(=O)(=O)c4ccc(N[C@H](CCN5CCOCC5)CSc5ccccc5)c(S(=O)(=O)C(F)(F)F)c4)cc3)CC2)C1 [Navitoclax] + COc1cc2c(Oc3ccc(NC(=O)C4(C(=O)Nc5ccc(F)cc5)CC4)cc3F)ccnc2cc1OCCCN1CCOCC1 [Foretinib] (partner 0.25 µM)
A-427; first compound 0.005 µM
  relative viability: 0.988
A-427; first compound 0.01581 µM
  relative viability: 1.07
A-427; first compound 0.05 µM
  relative viability: 0.821
A-427; first compound 0.1581 µM
  relative viability: 1.04
A-427; first compound 0.5 µM
  relative viability: 1.1
NCI-H1975; first compound 0.005 µM
  relative viability: 0.887
NCI-H1975; first compound 0.01581 µM
  relative viability: 1.03
NCI-H1975; first compound 0.05 µM
  relative viability: 1.03
NCI-H1975; first compound 0.1581 µM
  relative viability: 0.914
NCI-H1975; first compound 0.5 µM
  relative viability: 1.04
NCI-H1563; first compound 0.005 µM
  relative viability: 0.948
NCI-H1563; first compound 0.01581 µM
  relative viability: 0.967
NCI-H1563; first compound 0.05 µM
  relative viability: 0.856
NCI-H1563; first compound 0.1581 µM
  relative viability: 0.987
NCI-H1563; first compound 0.5 µM
  relative viability: 1.03
NCI-H1755; first compound 0.005 µM
  relative viability: 0.873
NCI-H1755; first compound 0.01581 µM
  relative viability: 1.01
NCI-H1755; first compound 0.05 µM
  relative viability: 0.735
NCI-H1755; first compound 0.1581 µM
  relative viability: 0.901
NCI-H1755; first compound 0.5 µM
  relative viability: 0.855
HCC-366; first compound 0.005 µM
  relative viability: 0.98
HCC-366; first compound 0.01581 µM
  relative viability: 0.82
HCC-366; first compound 0.1581 µM
  relative viability: 1
HCC-366; first compound 0.5 µM
  relative viability: 0.982
NCI-H520; first compound 0.01581 µM
  relative viability: 0.985
NCI-H520; first compound 0.05 µM
  relative viability: 0.892
NCI-H520; first compound 0.1581 µM
  relative viability: 0.738
NCI-H520; first compound 0.5 µM
  relative viability: 0.61
ChaGo-K-1; first compound 0.005 µM
  relative viability: 1.04
ChaGo-K-1; first compound 0.01581 µM
  relative viability: 0.94
ChaGo-K-1; first compound 0.05 µM
  relative viability: 0.537
ChaGo-K-1; first compound 0.1581 µM
  relative viability: 0.9
ChaGo-K-1; first compound 0.5 µM
  relative viability: 0.932
NCI-H1734; first compound 0.005 µM
  relative viability: 0.887
NCI-H1734; first compound 0.01581 µM
  relative viability: 0.941
NCI-H1734; first compound 0.1581 µM
  relative viability: 0.831
NCI-H1734; first compound 0.5 µM
  relative viability: 0.906
NCI-H2170; first compound 0.005 µM
  relative viability: 0.969
NCI-H2170; first compound 0.01581 µM
  relative viability: 1.02
NCI-H2170; first compound 0.05 µM
  relative viability: 1.08
NCI-H2170; first compound 0.1581 µM
  relative viability: 1.07
NCI-H2170; first compound 0.5 µM
  relative viability: 0.955
NCI-H23; first compound 0.005 µM
  relative viability: 1.04
NCI-H23; first compound 0.01581 µM
  relative viability: 1.1
NCI-H23; first compound 0.05 µM
  relative viability: 1.08
NCI-H23; first compound 0.1581 µM
  relative viability: 0.768
NCI-H23; first compound 0.5 µM
  relative viability: 0.882
NCI-H1666; first compound 0.005 µM
  relative viability: 0.941
NCI-H1666; first compound 0.01581 µM
  relative viability: 1.04
NCI-H1666; first compound 0.05 µM
  relative viability: 0.965
NCI-H1666; first compound 0.1581 µM
  relative viability: 0.998
NCI-H1666; first compound 0.5 µM
  relative viability: 0.964
EKVX; first compound 0.005 µM
  relative viability: 1.02
EKVX; first compound 0.01581 µM
  relative viability: 1.01
EKVX; first compound 0.05 µM
  relative viability: 0.544
EKVX; first compound 0.1581 µM
  relative viability: 0.8
EKVX; first compound 0.5 µM
  relative viability: 0.629
EMC-BAC-2; first compound 0.005 µM
  relative viability: 1.07
EMC-BAC-2; first compound 0.01581 µM
  relative viability: 1.14
EMC-BAC-2; first compound 0.05 µM
  relative viability: 0.96
EMC-BAC-2; first compound 0.1581 µM
  relative viability: 1.01
EMC-BAC-2; first compound 0.5 µM
  relative viability: 1.05
PC-3 [JPC-3]; first compound 0.005 µM
  relative viability: 1.02
PC-3 [JPC-3]; first compound 0.01581 µM
  relative viability: 1.03
PC-3 [JPC-3]; first compound 0.05 µM
  relative viability: 1.12
PC-3 [JPC-3]; first compound 0.1581 µM
  relative viability: 1.02
PC-3 [JPC-3]; first compound 0.5 µM
  relative viability: 1.06
SK-MES-1; first compound 0.005 µM
  relative viability: 0.817
SK-MES-1; first compound 0.01581 µM
  relative viability: 1.09
SK-MES-1; first compound 0.05 µM
  relative viability: 0.916
SK-MES-1; first compound 0.1581 µM
  relative viability: 0.895
SK-MES-1; first compound 0.5 µM
  relative viability: 1.04
LK-2; first compound 0.005 µM
  relative viability: 1.22
LK-2; first compound 0.01581 µM
  relative viability: 1.15
LK-2; first compound 0.05 µM
  relative viability: 0.645
LK-2; first compound 0.1581 µM
  relative viability: 1.24
LK-2; first compound 0.5 µM
  relative viability: 1.08
NCI-H441; first compound 0.005 µM
  relative viability: 0.958
NCI-H441; first compound 0.01581 µM
  relative viability: 1.05
NCI-H441; first compound 0.05 µM
  relative viability: 1.05
NCI-H441; first compound 0.1581 µM
  relative viability: 0.945
NCI-H441; first compound 0.5 µM
  relative viability: 0.948
SW 900; first compound 0.005 µM
  relative viability: 0.857
SW 900; first compound 0.01581 µM
  relative viability: 1.04
SW 900; first compound 0.05 µM
  relative viability: 0.819
SW 900; first compound 0.1581 µM
  relative viability: 0.643
SW 900; first compound 0.5 µM
  relative viability: 0.85
LOU-NH91; first compound 0.005 µM
  relative viability: 0.955
LOU-NH91; first compound 0.01581 µM
  relative viability: 0.932
LOU-NH91; first compound 0.05 µM
  relative viability: 0.941
LOU-NH91; first compound 0.1581 µM
  relative viability: 0.911
LOU-NH91; first compound 0.5 µM
  relative viability: 0.824
COR-L 105; first compound 0.005 µM
  relative viability: 1.17
COR-L 105; first compound 0.01581 µM
  relative viability: 1.46
COR-L 105; first compound 0.05 µM
  relative viability: 1.31
COR-L 105; first compound 0.1581 µM
  relative viability: 0.865
COR-L 105; first compound 0.5 µM
  relative viability: 0.979
NCI-H596; first compound 0.005 µM
  relative viability: 1.08
NCI-H596; first compound 0.01581 µM
  relative viability: 0.853
NCI-H596; first compound 0.1581 µM
  relative viability: 0.839
NCI-H596; first compound 0.5 µM
  relative viability: 0.917
H3255; first compound 0.005 µM
  relative viability: 0.884
H3255; first compound 0.01581 µM
  relative viability: 0.973
H3255; first compound 0.05 µM
  relative viability: 0.764
H3255; first compound 0.1581 µM
  relative viability: 0.861
H3255; first compound 0.5 µM
  relative viability: 0.787
